In ChEMBL document CHEMBL1201862, “PubChem BioAssay data set” (2004):
The source made the active and inactive calls. Cut-off read from the data, not from the text of the source: actives have a measured IC50 and inactives only a lower limit.

Target: Envelope glycoprotein gp160 (Human immunodeficiency virus 1, UniProt Q6QLK5)
Assay: inhibitors of HIV fusion peptide binding, primary screen, biochemical, uHTS, fluorescence dequenching (AID 1986)

Sequence of Envelope glycoprotein gp160 (Q6QLK5 whole entry, the tested form may be a part): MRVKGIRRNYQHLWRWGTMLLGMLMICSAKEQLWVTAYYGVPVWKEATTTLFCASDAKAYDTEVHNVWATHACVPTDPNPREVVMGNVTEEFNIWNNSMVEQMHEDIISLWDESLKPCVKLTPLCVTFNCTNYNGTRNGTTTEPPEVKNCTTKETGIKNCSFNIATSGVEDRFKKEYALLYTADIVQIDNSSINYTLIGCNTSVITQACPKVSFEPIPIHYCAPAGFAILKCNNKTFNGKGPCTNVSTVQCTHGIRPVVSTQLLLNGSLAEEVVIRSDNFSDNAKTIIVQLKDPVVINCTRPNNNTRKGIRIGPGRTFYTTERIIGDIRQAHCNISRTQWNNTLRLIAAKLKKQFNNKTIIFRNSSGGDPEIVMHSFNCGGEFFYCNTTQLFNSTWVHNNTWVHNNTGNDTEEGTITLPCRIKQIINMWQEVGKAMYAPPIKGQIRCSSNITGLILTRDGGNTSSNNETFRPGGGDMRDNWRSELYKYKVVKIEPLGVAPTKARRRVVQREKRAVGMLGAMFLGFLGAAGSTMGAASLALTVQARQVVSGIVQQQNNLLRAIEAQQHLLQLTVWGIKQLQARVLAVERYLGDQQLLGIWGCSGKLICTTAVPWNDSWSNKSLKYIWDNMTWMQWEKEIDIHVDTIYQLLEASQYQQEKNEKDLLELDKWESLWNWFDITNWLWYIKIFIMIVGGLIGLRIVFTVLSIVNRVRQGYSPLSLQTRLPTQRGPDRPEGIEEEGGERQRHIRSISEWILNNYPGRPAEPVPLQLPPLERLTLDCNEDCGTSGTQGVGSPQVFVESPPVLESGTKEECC

Cc1ccc(N2C(=O)/C(=C\Nc3ccccc3-c3nnc(S)nc3O)c3ccccc3C2=O)c(C)c1
IC50: 23.9 µM (active)
